This data set is described as follows: Solubility test in water and FaSSIF. Type of data set: physicochemical. The settings on record: 37° C., up to 24 hours.
Setting [1] is: thermodynamic from solid, FaSSIF (pH 6.5), read-out: Solubility.
Setting [2] is: thermodynamic from solid, Water, read-out: Solubility.

The text below walks through data of patent US20220177511A1, “SERIES OF HALOGENATED TETRACYCLIC TRITERPENE DERIVATIVES AND THEIR PREPARATION AND APPLICATION” (SHANGHAI KING-X BIOTECH CO., LTD, priority 2019, published 2022).

Each structure is given as a SMILES string. ≈ marks a conversion by molar mass, not a printed value. Read-outs that look alike come from different tables or passages of the source.

For orientation: Solubility means the concentration that dissolves in the medium under given conditions.

As to `CC(C)(O)[C@@H]1CC[C@@](C)([C@H]2[C@@H](O)C[C@@]3(C)[C@@H]4C[C@H](OC(=O)COCCOCCOCCOCCOCCO)[C@H]5C(C)(C)C(F)(F)CC[C@@]56C[C@@]46CC[C@]23C)O1` [Compound 2-14, (2aR,3R,4S,5aS,5bS,7S,7aR,11aR,12aS)-9,9-difluoro-4-hydroxy-3-((2S,5S)-5-(2-hydroxypropan-2-yl)-2-methyltetrahydrofuran-2-yl)-2a,5a,8,8-tetramethyltetradecahydro-1H,12H-cyclopenta[a]cyclopropa[e]phenanthren-7-yl-17-hydroxy-3,6,9,12,15-pentaoxaheptadecanoate], the Solubility came to 2.31 mg/mL (≈ 2930 µM) under setting [1] and 1.23 mg/mL (≈ 1560 µM) under setting [2].
With `CC(C)(O)C1CCC(C)(C2C(O)CC3(C)C4CC(OC(=O)C5CCNCC5)C5C(C)(C)C(F)(F)CCC56CC46CCC23C)O1.Cl` [Compound 2-2, 4-((((2aR,3R,4S,5aS,5bS,7S,7aR,11aR,12aS)-9,9-difluoro-4-hydroxy-3-((2S,5S)-5-(2-hydroxypropan-2-yl)-2-methyltetrahydrofuran-2-yl)-2a,5a,8,8-tetramethyltetradecahydro-1H,12H-cyclopenta[a]cyclopropa[e]phenanthren-7-yl)oxy)carbonyl)piperidin-1-ium Chloride], the Solubility is, setting by setting: (FaSSIF (pH 6.5)) 1.66 mg/mL; (Water) 0.88 mg/mL.
Taken in the same sequence, the figures for `CC(C)(O)[C@@H]1CC[C@@](C)([C@H]2[C@@H](O)C[C@@]3(C)[C@@H]4C[C@H](OC(=O)[C@@H](N)CS)[C@H]5C(C)(C)C(F)(F)CC[C@@]56C[C@@]46CC[C@]23C)O1.Cl` [Compound 2-25, (R)-1-(((2aR,3R,4S,5aS,5bS,7S,7aR,11aR,12aS)-9,9-difluoro-4-hydroxy-3-((2S,5S)-5-(2-hydroxypropan-2-yl)-2-methyltetrahydrofuran-2-yl)-2a,5a,8,8-tetramethyltetradecahydro-1H,12H-cyclopenta[a]cyclopropa[e]phenanthren-7-yl)oxy)-3-mercapto-1-oxopropan-2-aminium Chloride] were 3.35 mg/mL and 1.02 mg/mL.
For `CC(C)(O)C1CCC(C)(C2C(O)CC3(C)C4CC(OP(=O)([O-])O)C5C(C)(C)C(F)(F)CCC56CC46CCC23C)O1.[Na+]` [Compound 3-1, Monosodium Mono((2aR,3R,4S,5aS,5bS,7S,7aR,11aR,12aS)-9,9-difluoro-4-hydroxy-3-((2S,5S)-5-(2-hydroxypropan-2-yl)-2-methyltetrahydrofuran-2-yl)-2a,5a,8,8-tetramethyltetradecahydro-1H,12H-cyclopenta[a]cyclopropa[e]phenanthren-7-yl phosphate)], in that order: 15.8 mg/mL and 11.5 mg/mL.
Taken in the same sequence, the figures for `Br.CC(C)(O)[C@@H]1CC[C@@](C)([C@H]2[C@@H](O)C[C@@]3(C)[C@@H]4C[C@H](OC(=O)[C@@H](N)CC(N)=O)[C@H]5C(C)(C)C(F)(F)CC[C@@]56C[C@@]46CC[C@]23C)O1` [Compound 2-21, (S)-4-amino-1-(((2aR,3R,4S,5aS,5bS,7S,7aR,11aR,12aS)-9,9-difluoro-4-hydroxy-3-((2S,5S)-5-(2-hydroxypropan-2-yl)-2-methyltetrahydrofuran-2-yl)-2a,5a,8,8-tetramethyltetradecahydro-1H,12H-cyclopenta[a]cyclopropa[e]phenanthren-7-yl)oxy)-1,4-dioxobutan-2-aminium Bromide] were 3.5 mg/mL and 0.9 mg/mL.
For `CC(C)(O)[C@@H]1CC[C@@](C)([C@H]2[C@@H](O)C[C@@]3(C)[C@@H]4C[C@H](OC(=O)COCCOCCOCCO)[C@H]5C(C)(C)C(F)(F)CC[C@@]56C[C@@]46CC[C@]23C)O1` [Compound 2-13, (2aR,3R,4S,5aS,5bS,7S,7aR,11aR,12aS)-9,9-difluoro-4-hydroxy-3-((2S,5S)-5-(2-hydroxypropan-2-yl)-2-methyltetrahydrofuran-2-yl)-2a,5a,8,8-tetramethyltetradecahydro-1H,12H-cyclopenta[a]cyclopropa[e]phenanthren-7-yl-2-(2-(2-(2-hydroxyethoxy)ethoxy)ethoxy)acetate], the Solubility worked out at 1.15 mg/mL (≈ 1640 µM) under setting [1] and 0.85 mg/mL (≈ 1210 µM) under setting [2].
Regarding `CC(C)(O)[C@@H]1CC[C@@](C)([C@H]2[C@@H](O)C[C@@]3(C)[C@@H]4C[C@H](OC(=O)[C@@H](N)CCCNC(=N)N)[C@H]5C(C)(C)C(F)(F)CC[C@@]56C[C@@]46CC[C@]23C)O1.Cl.Cl` [Compound 2-23, 1-((S)-4-ammonio-5-(((2aR,3R,4S,5aS,5bS,7S,7aR,11aR,12aS)-9,9-difluoro-4-hydroxy-3-((2S,5S)-5-(2-hydroxypropan-2-yl)-2-methyltetrahydrofuran-2-yl)-2a,5a,8,8-tetramethyltetradecahydro-1H,12H-cyclopenta[a]cyclopropa[e]phenanthren-7-yl)oxy)-5-oxopentyl)guanidinium Chloride], the Solubility was determined as 6.6 mg/mL (FaSSIF (pH 6.5)) and 2.3 mg/mL (Water).
Compound `CC(C)(O)[C@@H]1CC[C@@](C)([C@H]2[C@@H](O)C[C@@]3(C)[C@@H]4C[C@H](OC(=O)[C@@H](N)CCCCN)[C@H]5C(C)(C)C(F)(F)CC[C@@]56C[C@@]46CC[C@]23C)O1.Cl.Cl` [Compound 2-26, (S)-6-(((2aR,3R,4S,5aS,5bS,7S,7aR,11aR,12aS)-9,9-difluoro-4-hydroxy-3-((2S,5S)-5-(2-hydroxypropan-2-yl)-2-methyltetrahydrofuran-2-yl)-2a,5a,8,8-tetramethyltetradecahydro-1H,12H-cyclopenta[a]cyclopropa[e]phenanthren-7-yl)oxy)-6-oxohexane-1,5-diaminium Chloride] yielded a Solubility (FaSSIF (pH 6.5)) of 6.6 mg/mL and a Solubility (Water) of 2.1 mg/mL.
For `CC(C)(O)C1CCC(C)(C2C(O)CC3(C)C4CC(OC(=O)CNCCNCCN)C5C(C)(C)C(F)(F)CCC56CC46CCC23C)O1.O=[N+]([O-])O` [Compound 2-9, 2-((2-((2-(((2aR,3R,4S,5aS,5bS,7S,7aR,11aR,12aS)-9,9-difluoro-4-hydroxy-3-((2S,5S)-5-(2-hydroxypropan-2-yl)-2-methyltetrahydrofuran-2-yl)-2a,5a,8,8-tetramethyltetradecahydro-1H,12H-cyclopenta[a]cyclopropa[e]phenanthren-7-yl)oxy)-2-oxoethyl)amino)ethyl)amino)ethan-1-aminium Nitrate], in that order: 4.52 mg/mL and 2.11 mg/mL.
For `CC(C)C[C@H](N)C(=O)O[C@H]1C[C@@H]2[C@]3(CC[C@]4(C)[C@@H]([C@]5(C)CC[C@@H](C(C)(C)O)O5)[C@@H](O)C[C@@]24C)C[C@@]32CCC(F)(F)C(C)(C)[C@H]12.Cl` [Compound 2-18, (S)-1-(((2aR,3R,4S,5aS,5bS,7S,7aR,11aR,12aS)-9,9-difluoro-4-hydroxy-3-((2S,5S)-5-(2-hydroxypropan-2-yl)-2-methyltetrahydrofuran-2-yl)-2a,5a,8,8-tetramethyltetradecahydro-1H,12H-cyclopenta[a]cyclopropa[e]phenanthren-7-yl)oxy)-4-methyl-1-oxopentan-2-aminium Chloride], in that order: 1.85 mg/mL and 0.6 mg/mL.
